The target of experiment [1] is T1, human MC4R (Homo sapiens, UniProt P32245).
T1 construct: expressed in transfected cells
Briefly: Functional cAMP assay (CisBio HTRF) in BHK cells expressing human MC4R. Format: cell-based. Conditions: for MC1R/MC4R cAMP EC50 ratio: MC1R cAMP EC50 divided by MC4R cAMP EC50. The gist of the method:
(§1)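 Stably transfected BHK cells expressing human MC1R or MC4R; cAMP quantified by HTRF (cAMP-d2/cryptate) after 30 min compound stimulation at 25 °C in DMEM-based buffer with 1 mM IBMX. Compounds were prepared as 10-fold serial dilutions starting at 2 μM (working solution, 2× final). Readout after 1 h at 25 °C; non-linear regression.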
On the technique in general: Cyclic AMP is a second messenger, typically raised through Gs and lowered through Gi signalling.

Experiment [2] has as its target T1, human MC4R. Nature of the experiment: 125NDP-α-MSH competitive binding to membranes of BHK cells expressing human MC4 receptor (filtration assay). The gist of the method:
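Displacement of ^125NDP-α-MSH (apx. […] final) was measured by filtration after 2 h at 25 °C, using diluted membranes of stably transfected BHK cells in pH 7.0 HEPES buffer. Compounds spanned 1 μM to 0.001 nM; binding curves were analysed by non-linear regression.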

Another experiment deals with T2, human MC1R (Homo sapiens, UniProt Q01726).
T2 construct: expressed in transfected cells
Nature of the experiment: Functional cAMP assay (CisBio HTRF) in BHK cells expressing human MC1R. The class given is cell-based. The gist of the method: as §1

Setting [3] is: BHK cells expressing human MC4R, '>' = highest dose used with no response, read-out: MC4R cAMP EC50.
The mark [4] stands for this setting: human MC4R, BHK cell membranes, 125NDP-α-MSH radioligand, read-out: MC4R binding Ki.
Setting [5] is: BHK cells expressing human MC1R, '>' = highest dose used with no response, read-out: MC1R cAMP EC50.

Where two headings read alike, the source gives them in different places. Positions of bridges follow the written chain, without caps; N, C: chain ends. Non-standard residues stand in square brackets, D forms with d. Residues, ends and D or L forms follow the SMILES beside them. Hyp = O=C(O)[C@@H]1C[C@@H](O)CN1; Aib = CC(C)(N)C(=O)O; Sar = CNCC(=O)O Some results are limits rather than exact numbers.

T1 sequence (P32245 whole entry): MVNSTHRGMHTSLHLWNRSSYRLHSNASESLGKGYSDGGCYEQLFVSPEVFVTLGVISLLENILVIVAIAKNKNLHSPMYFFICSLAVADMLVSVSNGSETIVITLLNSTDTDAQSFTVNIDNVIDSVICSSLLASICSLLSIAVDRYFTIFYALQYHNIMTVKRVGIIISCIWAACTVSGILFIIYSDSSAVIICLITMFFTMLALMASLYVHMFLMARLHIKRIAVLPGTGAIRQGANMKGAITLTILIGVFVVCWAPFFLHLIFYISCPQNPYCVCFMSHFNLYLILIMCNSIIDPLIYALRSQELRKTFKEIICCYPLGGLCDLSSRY
T2 sequence (Q01726 whole entry): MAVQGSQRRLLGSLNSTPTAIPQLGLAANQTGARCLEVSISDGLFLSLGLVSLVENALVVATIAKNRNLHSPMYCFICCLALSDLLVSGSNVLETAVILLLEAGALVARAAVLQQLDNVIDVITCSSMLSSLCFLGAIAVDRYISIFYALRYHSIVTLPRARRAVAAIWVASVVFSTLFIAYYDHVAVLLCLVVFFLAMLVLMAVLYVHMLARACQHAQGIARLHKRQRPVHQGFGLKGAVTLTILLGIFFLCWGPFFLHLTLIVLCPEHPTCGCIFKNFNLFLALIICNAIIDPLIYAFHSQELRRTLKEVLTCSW

A word on the EC50: it is the concentration at which the effect is half-maximal. The Ki is a dissociation constant, usually derived from enzyme kinetics or from competition with a known ligand. Take `CC1(C)NC(=O)[C@@H]2CSSC[C@H](NC(=O)[C@H](Cc3c[nH]c4ccccc34)NC(=O)[C@H](CCCNC(=N)N)NC(=O)[C@@H](Cc3ccccc3)NC(=O)[C@@H]3C[C@@H](O)CN3C1=O)C(=O)NC(C)(C)C(=O)N1C[C@H](O)C[C@H]1C(=O)N[C@H](Cc1ccccc1)C(=O)N[C@@H](CCCNC(=N)N)C(=O)N[C@@H](Cc1c[nH]c3ccccc13)C(=O)N2` [Chem. 38, c[c[Cys-Aib-Hyp-D-Phe-Arg-Trp- Cys]-Aib-Hyp-D-Phe-Arg-Trp]] (cyclo([Aib][Hyp][dF]RWC[Aib][Hyp][dF]RWC); disulfide 6-12): the EC50 is 4.22 nM on human MC4R [1] (setting [3]) and greater than 3.7 nM at human MC1R (setting [5]). In addition, on human MC4R [2] (setting [4]), the Ki stood at 5.64 nM.

For `C[C@@H]1NC(=O)[C@@H]2CSSC[C@H](NC(=O)[C@H](Cc3c[nH]c4ccccc34)NC(=O)[C@H](CNC(=N)N)NC(=O)[C@@H](Cc3ccccc3)NC(=O)[C@H](Cc3c[nH]cn3)NC1=O)C(=O)N[C@@H](C)C(=O)N[C@@H](Cc1c[nH]cn1)C(=O)N[C@H](Cc1ccccc1)C(=O)N[C@@H](CNC(=N)N)C(=O)N[C@@H](Cc1c[nH]c3ccccc13)C(=O)N2` [Chem. 42, c[c[Cys-Ala-His-D-Phe-AGP-Trp- Cys]-Ala-His-D-Phe-AGP-Trp]], the EC50 was greater than 1000 nM at human MC4R [1] (setting [3]) and greater than 100 nM on human MC1R (setting [5]). Further, at human MC4R [2] (setting [4]), the Ki was no less than 10000 nM.

Regarding `C[C@@H]1NC(=O)[C@@H]2CSSC[C@H](NC(=O)[C@H](CCCNC(=N)N)NC(=O)[C@H](CCCCN)NC(=O)[C@H](CCCCN)NC(=O)[C@H](CCCCN)NC1=O)C(=O)N(C)CC(=O)N[C@@H](Cc1c[nH]cn1)C(=O)N[C@H](Cc1ccccc1)C(=O)N[C@@H](Cc1c[nH]cn1)C(=O)N[C@@H](Cc1c[nH]c3ccccc13)C(=O)N2` [Chem. 74, c[c[Cys-Sar-His-D-Phe-His-Trp-Cys]- Ala-Lys-Lys-Lys-Arg]] (cyclo(AKKKRC[Sar]H[dF]HWC); disulfide 6-12), the EC50 is 0.29 nM on human MC4R [1] (setting [3]) and greater than 5.5 nM at human MC1R (setting [5]). Moreover, the “MC1R/MC4R cAMP EC50 ratio” value at human MC4R [1] was 19. Further, the Ki at human MC4R [2] (setting [4]) is 0.08 nM.

For `C[C@@H]1NC(=O)[C@H](C)NC(=O)[C@@H]2CSSC[C@H](NC(=O)[C@H](Cc3c[nH]c4ccccc34)NC(=O)[C@H](C)NC(=O)[C@@H](C)NC1=O)C(=O)N[C@@H](C)C(=O)N[C@@H](Cc1c[nH]cn1)C(=O)N[C@H](Cc1ccccc1)C(=O)N[C@@H](CCCNC(=N)N)C(=O)N[C@@H](Cc1c[nH]c3ccccc13)C(=O)N2` [Chem. 88, c[c[Cys-Ala-His-D-Phe-Arg-Trp-Cys]- Ala-Ala-D-Ala-Ala-Trp]] (cyclo(AA[dA]AWCAH[dF]RWC); disulfide 6-12), the EC50 on human MC4R [1] was found to be 0.02 nM; on human MC1R, 1.31 nM. For the same compound, the “MC1R/MC4R cAMP EC50 ratio” value on human MC4R [1] is reported as 66. On human MC4R [2], this compound yielded a Ki of 0.2 nM.

As to `C[C@@H]1NC(=O)[C@@H]2CSSC[C@H](NC(=O)[C@H](Cc3c[nH]c4ccccc34)NC(=O)[C@H](CCCCN)NC(=O)[C@H](CCCCN)NC(=O)[C@H](CCCCN)NC1=O)C(=O)NC(C)(C)C(=O)N[C@@H](Cc1c[nH]cn1)C(=O)N[C@H](Cc1ccccc1)C(=O)N[C@@H](Cc1c[nH]cn1)C(=O)N[C@@H](Cc1c[nH]c3ccccc13)C(=O)N2` [Chem. 61, c[c[Cys-Aib-His-D-Phe-His-Trp-Cys]- Ala-Lys-Lys-Lys-Trp]] (cyclo(AKKKWC[Aib]H[dF]HWC); disulfide 6-12), the EC50 is 0.31 nM at human MC4R [1] (setting [3]) and greater than 1 nM at human MC1R (setting [5]). The “MC1R/MC4R cAMP EC50 ratio” value on human MC4R [1] is on record as greater than 3. Moreover, the Ki on human MC4R [2] (setting [4]) was determined as 0.22 nM.

Take `C[C@@H]1NC(=O)[C@H](C)NC(=O)[C@@H]2CSSC[C@H](NC(=O)[C@H](Cc3c[nH]c4ccccc34)NC(=O)[C@H](C)NC(=O)[C@@H](Cc3ccccc3)NC1=O)C(=O)N[C@@H](C)C(=O)N[C@@H](Cc1c[nH]cn1)C(=O)N[C@H](Cc1ccccc1)C(=O)N[C@@H](CCCNC(=N)N)C(=O)N[C@@H](Cc1c[nH]c3ccccc13)C(=O)N2` [Chem. 11, c[[Cys-Ala-His-D-Phe-Arg-Trp-Cys]- Ala-Ala-D-Phe-Ala-Trp]] (cyclo(AA[dF]AWCAH[dF]RWC); disulfide 6-12): on human MC4R [1], a half-maximal effect (EC50) was put at 0.03 nM and the “MC1R/MC4R cAMP EC50 ratio” value was 72. The Ki on human MC4R [2] worked out at 0.25 nM. For the same compound, the EC50 at human MC1R turned out to be 2.17 nM.

Take `C[C@@H]1NC(=O)[C@@H]2CSSC[C@H](NC(=O)[C@H](Cc3c[nH]c4ccccc34)NC(=O)[C@H](CCCNC(=N)N)NC(=O)[C@H](Cc3ccccc3)NC(=O)[C@H](Cc3c[nH]cn3)NC1=O)C(=O)N[C@@H](C)C(=O)N[C@@H](Cc1c[nH]cn1)C(=O)N[C@@H](Cc1ccccc1)C(=O)N[C@@H](CCCNC(=N)N)C(=O)N[C@@H](Cc1c[nH]c3ccccc13)C(=O)N2` [Chem. 56, c[c[Cys-Ala-His-Phe-Arg-Trp-Cys]- Ala-His-Phe-Arg-Trp]]: at human MC4R [1], the EC50 is 0.44 nM and the “MC1R/MC4R cAMP EC50 ratio” value is 80. This compound also displayed a Ki at human MC4R [2] of 1.82 nM. For the same compound, the midpoint of the response at human MC1R, the EC50, lay at 35.3 nM.

For `C[C@@H]1NC(=O)[C@H](C)NC(=O)[C@H](C)NC(=O)[C@@H]2CSSC[C@H](NC(=O)[C@H](CCCNC(=N)N)NC(=O)[C@H](C)NC1=O)C(=O)N[C@@H](C)C(=O)N[C@@H](Cc1c[nH]cn1)C(=O)N[C@H](Cc1ccccc1)C(=O)N[C@@H](CCCNC(=N)N)C(=O)N[C@@H](Cc1c[nH]c3ccccc13)C(=O)N2` [Chem. 89, c[c[Cys-Ala-His-D-Phe-Arg-Trp-Cys]- Ala-Ala-Ala-Ala-Arg]] (cyclo(AAAARCAH[dF]RWC); disulfide 6-12), at human MC4R [1], the response was half-maximal at 0.02 nM (EC50) and the “MC1R/MC4R cAMP EC50 ratio” value came to 30. On human MC4R [2], this compound gave a Ki of 0.07 nM. This compound also displayed an EC50 at human MC1R of 0.59 nM.

On to `C[C@@H]1NC(=O)[C@@H]2CSSC[C@H](NC(=O)[C@H](Cc3c[nH]c4ccccc34)NC(=O)[C@H](CCCNC(=N)N)NC(=O)[C@@H](Cc3ccccc3)NC(=O)[C@H](Cc3c[nH]cn3)NC1=O)C(=O)N[C@@H](C)C(=O)N[C@@H](CCC(=O)O)C(=O)N[C@@H](CCC(=O)O)C(=O)N[C@@H](CCC(=O)O)C(=O)N[C@@H](Cc1c[nH]c3ccccc13)C(=O)N2` [Chem. 44, c[c[Cys-Ala-His-D-Phe-Arg-Trp-Cys]- Ala-Glu-Glu-Glu-Trp]] (cyclo(AEEEWCAH[dF]RWC); disulfide 6-12), for which the EC50 is 1.53 nM on human MC4R [1] and 31.9 nM at human MC1R. The “MC1R/MC4R cAMP EC50 ratio” value at human MC4R [1] worked out at 21. The compound also had an inhibitory constant (Ki) on human MC4R [2] of 50.9 nM.

On to `C[C@@H]1NC(=O)[C@@H]2CSSC[C@H](NC(=O)[C@H](Cc3c[nH]c4ccccc34)NC(=O)[C@H](CCCCNC(=N)N)NC(=O)[C@@H](Cc3ccccc3)NC(=O)[C@H](Cc3c[nH]cn3)NC1=O)C(=O)N[C@@H](C)C(=O)N[C@@H](Cc1c[nH]cn1)C(=O)N[C@H](Cc1ccccc1)C(=O)N[C@@H](CCCCNC(=N)N)C(=O)N[C@@H](Cc1c[nH]c3ccccc13)C(=O)N2` [Chem. 22, c[c[Cys-Ala-His-D-Phe-HArg-Trp- Cys]-Ala-His-D-Phe-HArg-Trp]], for which the EC50 on human MC4R [1] (setting [3]) stood at 0.02 nM; on human MC1R (setting [5]), 0.22 nM. Moreover, the “MC1R/MC4R cAMP EC50 ratio” value at human MC4R [1] was 11. The Ki on human MC4R [2] (setting [4]) was found to be 0.06 nM.

For the compound `C[C@@H]1NC(=O)[C@@H]2CSSC[C@H](NC(=O)[C@H](CCCNC(=N)N)NC(=O)[C@H](CCCCN)NC(=O)[C@H](CCCCN)NC(=O)[C@H](CCCCN)NC1=O)C(=O)N[C@H](C)C(=O)N[C@@H](Cc1c[nH]cn1)C(=O)N[C@H](Cc1ccccc1)C(=O)N[C@@H](CCCNC(=N)N)C(=O)N[C@@H](Cc1c[nH]c3ccccc13)C(=O)N2` [Chem. 85, c[c[Cys-D-Ala-His-D-Phe-Arg-Trp- Cys]-Ala-Lys-Lys-Lys-Arg]] (cyclo(AKKKRC[dA]H[dF]RWC); disulfide 6-12), the EC50 at human MC4R [1] (setting [3]) was 0.01 nM; on human MC1R (setting [5]) it was 0.22 nM. In addition, the “MC1R/MC4R cAMP EC50 ratio” value at human MC4R [1] is listed as 22. Moreover, the Ki on human MC4R [2] (setting [4]) turned out to be 0.02 nM.

(Values after patent US20200223889A1, “Bicyclic Compounds Capable of Binding to Melanocortin 4 Receptor” (Novo Nordisk A/S, priority 2017, published 2020).)
